Measured values as given in paper PMC6797808, “Fucosylated inhibitors of recently identified bangle lectin from Photorhabdus asymbiotica” (Scientific Reports, 2019).
In brackets after ≈: the same amount, converted by molar mass.

Legend:
PHL [1] = target: T1, PHL (Photorhabdus asymbiotica, UniProt C7BLE4); test: SPR competitive inhibition of PHL binding to α-L-fucoside sensor chip; conditions: for IC50: 25 °C, three independent measurements; for β L-Fuc (affinity improvement factor): IC50,basic unit/(valency × IC50,ligand), basic unit L-Fuc; for PotencyL-Fuc: IC50 L-fucose / IC50 ligand
T1 sequence (C7BLE4 entry or part of it): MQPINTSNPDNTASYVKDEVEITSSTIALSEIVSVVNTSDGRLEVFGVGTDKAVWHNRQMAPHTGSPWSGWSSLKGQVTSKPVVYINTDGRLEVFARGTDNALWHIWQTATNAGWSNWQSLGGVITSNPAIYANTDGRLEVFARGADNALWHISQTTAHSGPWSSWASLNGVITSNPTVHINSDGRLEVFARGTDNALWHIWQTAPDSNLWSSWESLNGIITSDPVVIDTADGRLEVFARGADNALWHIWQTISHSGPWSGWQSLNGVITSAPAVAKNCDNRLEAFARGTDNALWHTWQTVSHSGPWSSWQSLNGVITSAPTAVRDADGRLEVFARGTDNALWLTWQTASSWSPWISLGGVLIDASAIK
Procedure: To analyse the competitive inhibition of PHL binding to a multivalent surface, the surface plasmon resonance (SPR) technique was employed. A sensor chip presenting α-L-fucopyranoside residues was treated with a constant concentration of PHL, while an increasing concentration of the ligands was used to determine IC50 (Table 2, Fig. 3). […] To assess the contribution of valency to the affinity increase, an affinity improvement factor β was calculated as the relationship IC50,basic unit/(valency × IC50,ligand)[30].
Surface plasmon resonance (SPR) experiments were performed on a BIAcore T200 instrument (GE Healthcare, UK) at 25 °C, using buffer A supplemented with 0.05% Tween 20 as a running buffer. α-L-fucoside was immobilized onto CM5 sensor chip (GE Healthcare, UK) covered with a carboxymethylated dextran matrix. The sensor chip surface was activated with N-ethyl-N-(3-dimethylaminopropyl)carbodiimide/N-hydroxysuccinimide solution and then coated with streptavidin using the manufacturer’s standard protocol using HBS buffer (10 mM HEPES, 150 mM NaCl, 0.05% Tween 20, pH 7. 5). Unreacted groups were blocked with 1 M ethanolamine-HCl, pH 8.5. Biotinylated carbohydrate (biotinilated monomeric probes, Lectinity, Russia) was injected onto particular measuring channel and pure biotin on blank channel at a flow rate of 5 μl/min.
SPR inhibition measurements were carried out on measuring channel with L-fucoside at a flow rate of 5 µl/min. PHL was diluted to a concentration of 20 μg/ml by the buffer A supplemented with 0.05% Tween 20, mixed 1:1 (v/v) with various concentrations of inhibitors (500–5 μM) in the same buffer and injected onto the sensor chip. The response of lectin bound to the sugar surface at equilibrium was plotted against the concentration of inhibitor in order to determine IC50 (concentration of inhibitor resulting in 50% inhibition of binding). As IC50 is not a constant and depends on the experimental set-up, a parameter called potency was used for characterization. The potency of a tested inhibitor is the ratio of IC50 of a chosen standard inhibitor (in this case L-fucose) and the inhibitor in question. Pure PHL lectin was used as a control (0% inhibition) and channel with pure biotin served as a blank. IC50 was determined from triplicates.

PHL [2] = target: T1, PHL; test: Isothermal titration calorimetry of PHL with ligands; type: binding; conditions: for Kd / −TΔS / −ΔG / −ΔH / n (stoichiometry): ITC at 25 °C; for n (stoichiometry): two independent measurements; for Potency L-Fuc: KD L-fucose / KD ligand; for β L-Fuc (affinity improvement factor): KD,basic unit/(valency × KD,ligand), basic unit L-Fuc
From the text: The binding of PHL to different α-L-fucoside compounds was further characterized by isothermal titration calorimetry (ITC), enabling determination of the complete thermodynamic profile of the molecular interactions (Table 3, Fig. 4). […] Because of this, it was not possible to evaluate the data, despite the obvious interaction. The dendrimers also cross-linked/aggregated the protein as with calixarenes, however the curves provided clear outcomes with an affinity in the low micromolar range. The dissociation constants (KD) of all dendrimers correlate with their valency – the higher number of fucose, the more decreased KD. […] The stoichiometry value n corresponds to the number of terminal fucoses per ligand molecule. The n value decreases from 4 to 1 as the number of fucose units increases from 1 to 12 (Table 3).
PHL protein in buffer A was equilibrated at room temperature at least for 30 min before ITC measurement. All ITC experiments were performed using ITC200 calorimeter (Malvern Panalytical, UK) at 25 °C. Carbohydrate ligands dissolved in buffer A were used at different concentrations. Protein in the calorimeter cell (50 μM) was titrated by consecutive additions (2 μl) of the ligand (1.5–5 mM) in the syringe while stirring at 1000 rpm. Integrated heat effects were analysed by nonlinear regression using a single-site binding model and global fitting in Origin 7 software (Microcal Instruments)[37]. The thermodynamic parameters of synthesised inhibitors were determined from two independent measurements.

PHL [3] = target: T1, PHL; test: Hemagglutination inhibition assay with PHL (papain-treated human RBCs O); type: cell-based; conditions: for MIC (minimal inhibitory concentration, hemagglutination by PHL): RBC O, two independent measurements; for PotencyL-Fuc: MIC L-fucose / MIC ligand; for β L-Fuc (affinity improvement factor): MICbasic unit/(valency × MICligand), basic unit L-Fuc
Procedure: The set of potential ligands 1–10 with different levels of fucosylation was tested, and their inhibition potency on hemagglutination by PHL was assessed (Table 1, Fig. 2). […] To assess the contribution of valency to the affinity increase, an affinity improvement factor β was calculated as the relationship MICbasic unit/(valency × MICligand).
Human red blood cells (RBCs) O were processed according to previously published work[16]. In brief, RBCs O treated with sodium citrate were washed four times by PBS buffer (137 mM NaCl, 2.7 mM KCl, 8 mM Na2HPO4, 1.47 mM KH2PO4, pH 7.4), diluted to 50% by PBS with 0.005% (w/w) sodium azide and treated by 0.1% papain for the duration of 30 minutes.
Hemagglutination inhibition assay was performed for specificity and semi-quantitative affinity of the PHL interaction with the compounds. All carbohydrate inhibitors in 50 mM starting concentration were serially diluted in the PBS buffer and used for a determination of the lowest inhibiting concentration. As a blank, the PBS buffer supplemented with the appropriate amount of DMSO was used in order to exclude potential interference with the interaction. The individual samples were mixed with the lectin in concentration 2 mg/ml in a 5 μl:5 μl ratio. Thereafter, 10 μl of 10% RBCs O in PBS buffer was added, thoroughly mixed and incubated for 10 minutes at room temperature. Following incubation, the mixture was again mixed and the reaction was observed on microscope slides using Levenhuk 2L NG microscope with Levenhuk D2L digital camera (Levenhuk, USA). Imagines were obtained via software ToupView for Windows (Levenhuk). The positive (PHL without inhibitor) and negative control (reaction without PHL) were prepared and processed in the same way using the appropriate volume of PBS buffer instead of the not included components. The lowest concentration of inhibitor able to inhibit agglutination was determined and compared with the standard (L-fucose). Minimal inhibitory concentrations (MIC) of synthesised inhibitors were determined from two independent measurements.

Row | SMILES | IC50 (PHL [1]) [µM] | β L-Fuc (affinity improvement factor) (PHL [1]) | PotencyL-Fuc (PHL [1]) | Kd (PHL [2]) [µM] | −TΔS (PHL [2]) [kcal/mol] | −ΔG (PHL [2]) [kcal/mol] | −ΔH (PHL [2]) [kcal/mol] | n (stoichiometry) (PHL [2]) | Potency L-Fuc (PHL [2]; ITC) | β L-Fuc (affinity improvement factor) (PHL [2]; ITC) | MIC (minimal inhibitory concentration, hemagglutination by PHL) (PHL [3]) [µM] | PotencyL-Fuc (PHL [3]; hemagglutination) | β L-Fuc (affinity improvement factor) (PHL [3]; hemagglutination) | also measured
1 | C[C@@H]1O[C@@H](CCn2cc(COCC(COCc3cn(CC[C@@H]4O[C@@H](C)[C@@H](O)[C@@H](O)[C@@H]4O)nn3)(COCc3cn(CC[C@@H]4O[C@@H](C)[C@@H](O)[C@@H](O)[C@@H]4O)nn3)COCC(COCc3cn(CC[C@@H]4O[C@@H](C)[C@@H](O)[C@@H](O)[C@@H]4O)nn3)(COCc3cn(CC[C@@H]4O[C@@H](C)[C@@H](O)[C@@H](O)[C@@H]4O)nn3)COCc3cn(CC[C@@H]4O[C@@H](C)[C@@H](O)[C@@H](O)[C@@H]4O)nn3)nn2)[C@@H](O)[C@H](O)[C@@H]1O [Dendrimer 9] | 0.037 ± 0.003 | 1,631 | 9,762 | 12.5 ± 0.6 | 10.4 ± 0.382 | 6.69 ± 0.311 | 17.1 ± 0.19 | 2.0 ± 0.0 | 112 | 19 | 25 (≈ 44.6 µg/mL) | 125 | 20.8 | β L-Fuc (affinity improvement factor) (PHL [1]; listed as dendrimer 9): over 1,600; PotencyL-Fuc (PHL [1]; listed as dendrimer 9): 9,800; β Azide1 (affinity improvement factor) (PHL [1]; basic unit azide 1): 52; PotencyAzide1 (PHL [1]; relative to azide 1): 311; PotencyAzide1 (PHL [1]; relative to azide 1, listed as dendrimer 9): 310; Kd (PHL [2]; listed as hexavalent dendrimer): 13 µM; β Azide1 (affinity improvement factor) (PHL [2]; ITC, basic unit azide 1): 1; PotencyAzide1 (PHL [2]; ITC, relative to azide 1): 8; PotencyL-Fuc (PHL [3]; hemagglutination, listed as dendrimer 9): more than 100; β Azide1 (affinity improvement factor) (PHL [3]; hemagglutination, basic unit azide 1): 1.3; PotencyAzide1 (PHL [3]; hemagglutination, relative to azide 1): 8
2 | C[C@@H]1OC(CCCCC2O[C@@H](C)[C@@H](O)[C@@H](O)[C@@H]2O)[C@@H](O)[C@H](O)[C@@H]1O (some centres unmarked) [Difucoside 5, 1,4-bis(fucopyranosyl)butane] | 4.18 ± 0.42 | 43 | 86 | 120 ± 11 | 3.61 ± 0.789 | 5.35 ± 0.502 | 8.96 ± 0.621 | 3.9 ± 0.2 | 12 | 6 | 200 (≈ 70.1 µg/mL) | 15.6 | 7.8 | PotencyL-Fuc (PHL [3]; hemagglutination, listed as difucoside 5): 16
